From article PMC4387272, “Pharmacokinetic, pharmacodynamic and biomarker evaluation of transforming growth factor-β receptor I kinase inhibitor, galunisertib, in phase 1 study in patients with advanced cancer” (Investigational new drugs, 2014)
Where two headings read alike, the source gives them in different places.

Assays:
[1] = Non-compartmental plasma pharmacokinetics of galunisertib in patients (LC-MS/MS); type: in vivo, Human; settings: for Cmax / AUC(0-inf): po
Protocol: Human plasma samples obtained during this study were analyzed at PharmaNet USA, Inc. Princeton, New Jersey, USA. The samples were analyzed for galunisertib levels using 2 validated liquid chromatography with tandem mass spectrometry methods. For the high-range method (PharmaNet USA, Inc. SOP TM.589), the lower limit of quantification was 5.000 ng/mL and the upper limit of quantification was 1000.000 ng/mL. The intra-assay accuracy (% relative error) during validation ranged from 1.800 to 10.222 %. The intra-assay precision (% relative standard deviation) during validation ranged from 3.119 to 18.389 %. Samples above the limit of quantification were diluted to yield results within the calibrated range. Samples below the lower limit of quantification using the high-range method were reanalyzed using the low-range method. For the low-range method (PharmaNet USA, Inc. SOP TM.563), the lower limit of quantification was 0.050 ng/mL and the upper limit of quantification was 10.000 ng/mL. The intra-assay accuracy during validation ranged from −5.080 to −2.000 %. The intra-assay precision during validation ranged from 4.404 to 12.245 %.
All patients who received at least 1 dose of galunisertib and had samples collected were subjected to PK analyses. The PK parameters for galunisertib were computed by standard non-compartmental methods of analysis using Win Nonlin Professional Edition (version 5.3) on a computer that met or exceeded the minimum system requirements for this program with appropriate and validated software. The parameters reported from the non-compartmental analyses included the maximum plasma concentration (Cmax), area under the curve from zero to 24 h (AUC(0–24)), AUC from zero time to infinity (AUC(0–∞)), half-life volume of distribution (Vd) and clearance (CL).
Clinical benefit in this study has been defined as a patient with either a complete response (CR), partial response (PR), and stable disease (SD) ≥6 cycles. MAIP results from plasma samples taken at baseline were compared between patients completing >6 cycles and ≤6 cycles using ANOVA. The analysis included controlling the false discovery rate to 30 % using the Benjamini-Hochberg method. Boxplots showing the distributions at baseline of the potentially prognostic markers are provided. Observed TGF-β-stimulated pSMAD2 (pSMAD2^+) in PBMCs was normalized by TGF-β-stimulated tSMAD2 [(tSMAD2^+) ^0.6[9, 10]] prior to determining the minimum normalized pSMAD2^+ and calculating percentage inhibition post-baseline for each patient. Baseline and minimum post-baseline values for each patient together with maximum percentage inhibition are presented on a line and scatter plot for each patient in Cohort 3 and summary statistics by time point provided from a standard mixed effects regression model, fitting log normalized pSMAD2^+ to the fixed effects of log baseline normalized pSMAD2^+, nominal time point, dose and their interaction and patient as a random effect.
• Part A (Fig. 1 and Table 2): Non-compartmental PK analysis was performed on 37 of the 39 patients treated in Part A: n=3 in Cohort 1 (40 mg/day); n=4 in Cohort 2 (80 mg/day); n=15 in Cohort 3 (160 mg/day); n=6 in Cohort 4 (240 mg/day); n=9 in Cohort 5 (300 mg/day). […] The terminal half-life was approximately 8 h. At steady state, on Day 14, the median time to maximum concentration (tmax,ss) ranged from 0.5 to 2 h post dose, independent of dose. Formal assessment of time-linear kinetics was not possible, regardless of whether or not the observed exposures of AUC(0–∞) Day 1 and AUC(0–∞) Day 14 were similar. […] Both the maximum observed plasma concentration at steady state (Cmax,ss) and exposure increased with dose as indicated from the statistical analysis of the PK parameters. […] A population PK model was developed based on data in Cohorts 1 through 5 [7]. […] PK profiles of galunisertib following administration of 160 mg/day (Cohort 6) and 300 mg/day (Cohort 7) on Days 6 and 7 were similar.

[2] = tested on: MDC/CCL22; assay: Multi-analyte immunoassay panel (MAIP) of plasma proteins; type: in vivo, Human; settings: Part A and Part B, data not shown
Protocol: Plasma samples were analyzed for PD assessments by using a multi-analyte immunoassay panel (MAIP) (Myriad RBM, Austin, TX). The MAIP measurements included 89 plasma proteins. These proteins were evaluated at baseline and during the first cycle of treatment.
MDC/CCL22 is associated with modulating T regulatory cells and it may be involved in the activation of antigen-presenting cells. Whether such levels confer a better prognosis remains to be assessed. The lack of a change in MDC/CCL22 may perhaps indicate that this chemokine is not affected by galunisertib, but long-term examinations will be needed to further confirm this initial impression. Other plasma proteins were also found to be at different levels for patients treated with ≥6 cycles or ≤6 cycles.

[3] = Part A, 240 mg/day oral BID, day 14 steady state, Cycle 2, individual patients
[4] = Part A, 7.5-fold dose range, power model

AUC0,∞ individual parameters (n <3) [1, 3]: 2500- ^a ng*h/mL | Cmax, ss individual parameters (n <3) [1, 3]: 610- ^a ng/mL | PK profile in patients on enzyme-inducing anti-epileptic medication versus other patients ([1]; Part A, 3 patients (2 in Cohort 3, 1 in Cohort 4)): do not appear to differ | accumulation over the 14-day BID dosing regimen ([1]; Part A, 5 cohorts): no accumulation | estimated ratio of geometric means for AUC(0-∞) between 40 and 300 mg daily [1, 4]: 5.61 | estimated ratio of geometric means for Cmax,ss between 40 and 300 mg daily [1, 4]: 3.99 | PK profile with co-administration of proton pump inhibitors ([1]; Part A, 14 patients on PPI, Day 14): do not appear to be altered | fold increase of AUC(0–∞) for a doubling of dose ([1]; Part A, 40–300 mg, power model): 1.81 fold | fold increase of Cmax,ss for a doubling of dose ([1]; Part A, 40–300 mg, power model): 1.61 fold | duration of measurable plasma concentrations ([1]; Part A, oral, patients): at least 48 h | effect of co-administration of lomustine on galunisertib PK profile ([1]; Part B, 160 mg/day and 300 mg/day, Days 6 and 7): did not appear to alter | dose proportionality of PK ([1]; any doubling of dose within 40–300 mg, particularly AUC(0-∞)): dose-proportional PK | Tmax ([1]; human, plasma, oral, Part A, steady state, Day 14, post dose, independent of dose, read-out: median time to maximum concentration (tmax,ss)): 1800 to 7200 s | Cmax ([1]; human, plasma, 40 mg/day, Part A, 40 mg/day oral BID, day 14 steady state, Cycle 1, patients, read-out: Cmax, ss mean (% CV)): 220 ng/mL | Cmax ([1]; human, plasma, 80 mg/day, Part A, 80 mg/day oral BID, day 14 steady state, Cycle 1, patients, read-out: Cmax, ss mean (% CV)): 350 ng/mL | AUC(0-inf) ([1]; human, plasma, 160 mg/day, Part A, 160 mg/day oral BID, day 14 steady state, Cycle 1, patients, read-out: AUC0,∞ mean (% CV)): 2140 ng·h/mL | Cmax ([1]; human, plasma, 160 mg/day, Part A, 160 mg/day oral BID, day 14 steady state, Cycle 1, patients, read-out: Cmax, ss mean (% CV)): 630 ng/mL | AUC(0-inf) ([1]; human, plasma, 160 mg/day, Part A, 160 mg/day oral BID, day 14 steady state, Cycle 2, patients, read-out: AUC0,∞ mean (% CV)): 2430 ng·h/mL | Cmax ([1]; human, plasma, 160 mg/day, Part A, 160 mg/day oral BID, day 14 steady state, Cycle 2, patients, read-out: Cmax, ss mean (% CV)): 790 ng/mL | AUC(0-inf) ([1]; human, plasma, 240 mg/day, Part A, 240 mg/day oral BID, day 14 steady state, Cycle 1, patients, read-out: AUC0,∞ mean (% CV)): 3060 ng·h/mL | Cmax ([1]; human, plasma, 240 mg/day, Part A, 240 mg/day oral BID, day 14 steady state, Cycle 1, patients, read-out: Cmax, ss mean (% CV)): 660 ng/mL | AUC(0-inf) ([1]; human, plasma, 240 mg/day, Part A, 240 mg/day oral BID, day 14 steady state, Cycle 2, individual patients, read-out: AUC0,∞ individual parameters (n <3)): 2900 ng·h/mL | Cmax ([1]; human, plasma, 240 mg/day, Part A, 240 mg/day oral BID, day 14 steady state, Cycle 2, individual patients, read-out: Cmax, ss individual parameters (n <3)): 520 ng/mL | AUC(0-inf) ([1]; human, plasma, 300 mg/day, Part A, 300 mg/day oral BID, day 14 steady state, Cycle 1, patients, read-out: AUC0,∞ mean (% CV)): 3730 ng·h/mL | Cmax ([1]; human, plasma, 300 mg/day, Part A, 300 mg/day oral BID, day 14 steady state, Cycle 1, patients, read-out: Cmax, ss mean (% CV)): 990 ng/mL | AUC(0-inf) ([1]; human, plasma, 300 mg/day, Part A, 300 mg/day oral BID, day 14 steady state, Cycle 2, patients, read-out: AUC0,∞ mean (% CV)): 2930 ng·h/mL | Cmax ([1]; human, plasma, 300 mg/day, Part A, 300 mg/day oral BID, day 14 steady state, Cycle 2, patients, read-out: Cmax, ss mean (% CV)): 800 ng/mL | half-life ([1]; human, plasma, Part A, oral, patients, read-out: terminal half-life (converted)): ~8 h | between-patient coefficient of variation for AUC(0-∞) at steady state ([1]; pooled across the 5 cohorts): 42% | between-patient coefficient of variation for Cmax,ss ([1]; pooled across the 5 cohorts): 55% | within-patient coefficient of variation for AUC(0-∞) at steady state ([1]; pooled across the 5 cohorts): 29% | within-patient coefficient of variation for Cmax,ss ([1]; pooled across the 5 cohorts): 31%
SMILES: Cc1cccc(-c2nn3c(c2-c2ccnc4ccc(C(N)=O)cc24)CCC3)n1 [galunisertib]
post-treatment plasma levels of MDC/CCL22 [2]: did not show a change
